Measurements as given in patent publication US20230235022A1, “NEUTROPHIL ELASTASE BINDING PEPTIDES AND COMPOSITIONS THEREOF” (CASE WESTERN RESERVE UNIVERSITY, priority 2020, published 2023).

B1: mouse neutrophil elastase (m-NE) (protein)
chain: IVGGRPARPHAWPFMASLQRRGGHFCGATLIARNFVMSAAHCVNGLNFRSVQVVLGAHDLRRQERTRQTFSVQRIFENGFDPSQLLNDIVIIQLNGSATINANVQVAQLPAQGQGVGDRTPCLAMGWGRLGTNRPSPSVLQELNVTVVTNMCRRRVNVCTLVPRRQAGICFGDSGGPLVCNNLVQGIDSFIRGGCGSGLYPDAFAPVAEFADWINSIIRSHNDHLLTHPKDREGRTN
B2: human neutrophil elastase (h-NE) (protein)
chain: IVGGRRARPHAWPFMVSLQLRGGHFCGATLIAPNFVMSAAHCVANVNVRAVRVVLGAHNLSRREPTRQVFAVQRIFENGYDPVNLLNDIVILQLNGSATINANVQVAQLPAQGRRLGNGVQCLAMGWGLLGRNRGIASVLQELNVTVVTSLCRRSNVCTLVRGRQAGVCFGDSGSPLVCNGLIHGIASFVRGGCASGLYPDAFAPVAQFVNWIDSIIQ

Key:
[1] = Lethality after intravenous administration of HCQ in mouse; format: in vivo
[2] = system: neutrophils; test: Neutrophil viability with free or encapsulated HCQ; format: cell-based
[3] = target: RCL-derived NE binding peptide (NEBP)

Molecule | lethality [1] | concentration at which neutrophil viability is affected [2] | HPLC-based analysis of cleavage by NE [3]
CCN(CCO)CCCC(C)Nc1ccnc2cc(Cl)ccc12 (stereo not shown) [free HCQ, hydroxychloroquine] | high lethality | ≥ 10^3 ng/ml | –
B1 | – | – | such peptides are not cleaved by NE
B2 | – | – | such peptides are not cleaved by NE
